Data reported in EP0918774B9, “ANDROGEN RECEPTOR MODULATOR COMPOUNDS AND METHODS” (LIGAND PHARMACEUTICALS INCORPORATED, priority 1996, dated 1997).
Read-outs that look alike come from different tables or passages of the source.

Columns and labels:
human AR [1] = target: T1, human AR (Homo sapiens, UniProt P10275); assay: cell-based; format: cell-based; conditions: for AR Antagonist CV-1 Cells Efficacy (%): % of maximal inhibition, fixed DHT at EC50; for AR Agonist CV-1 Cells Efficacy (%): percent maximal response relative to reference agonist DHT; for AR agonist/antagonist profile (in words): co-transfection assay, summary of Tables 1-2
T1 construct: expressed in transfected cells; host or cells: CV-1 cells (African green monkey kidney fibroblasts), transient calcium phosphate transfection
T1 sequence (P10275 1-920): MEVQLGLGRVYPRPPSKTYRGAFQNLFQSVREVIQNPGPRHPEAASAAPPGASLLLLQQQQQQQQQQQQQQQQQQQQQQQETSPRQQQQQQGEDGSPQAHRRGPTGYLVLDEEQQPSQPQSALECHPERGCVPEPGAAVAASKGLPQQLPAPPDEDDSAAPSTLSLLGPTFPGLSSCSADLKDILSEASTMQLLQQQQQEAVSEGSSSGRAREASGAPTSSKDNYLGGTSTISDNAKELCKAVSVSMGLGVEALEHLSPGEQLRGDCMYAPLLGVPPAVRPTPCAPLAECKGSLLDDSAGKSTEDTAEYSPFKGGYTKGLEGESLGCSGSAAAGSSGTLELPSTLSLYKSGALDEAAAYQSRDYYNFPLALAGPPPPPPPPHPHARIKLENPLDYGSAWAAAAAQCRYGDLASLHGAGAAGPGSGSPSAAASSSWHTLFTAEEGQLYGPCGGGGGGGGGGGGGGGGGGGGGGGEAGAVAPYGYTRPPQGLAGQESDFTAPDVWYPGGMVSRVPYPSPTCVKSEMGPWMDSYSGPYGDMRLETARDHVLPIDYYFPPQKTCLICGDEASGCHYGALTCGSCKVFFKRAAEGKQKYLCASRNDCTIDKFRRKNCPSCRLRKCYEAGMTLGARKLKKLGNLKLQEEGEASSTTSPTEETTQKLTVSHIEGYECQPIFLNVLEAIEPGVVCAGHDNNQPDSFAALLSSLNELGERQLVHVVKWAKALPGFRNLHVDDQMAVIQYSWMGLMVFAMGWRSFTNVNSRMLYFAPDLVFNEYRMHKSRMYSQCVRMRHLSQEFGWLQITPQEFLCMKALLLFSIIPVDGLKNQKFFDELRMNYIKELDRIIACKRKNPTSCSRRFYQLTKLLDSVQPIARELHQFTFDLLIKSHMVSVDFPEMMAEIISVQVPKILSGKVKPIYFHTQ
Excerpt: The co-transfection assay provides a method for identifying functional agonists and partial agonists which mimic, or antagonists which inhibit, the effect of native hormones, and quantifying their activity for responsive IR proteins. In this regard, the co-transfection assay mimics an in vivo system in the laboratory. Importantly, activity in the co-transfection assay correlates very well with known in vivo activity, such that the co-transfection assay functions as a qualitative and quantitative predictor of a tested compounds in vivo pharmacology. See, e.g., T. Berger et al. 41 J. Steroid Biochem. Molec.
(§1) CV-1 cells (African green monkey kidney fibroblasts) were cultured in the presence of Dulbecco's Modified Eagle Medium (DMEM) supplemented with 10% charcoal resinstripped fetal bovine serum then transferred to 96-well microtiter plates one day prior to transfection.
The reporter plasmid, MTV-LUC, contains the cDNA for firefly luciferase (LUC) under control of the mouse mammary tumor virus (MTV) long terminal repeat, a conditional promoter containing an androgen response element. See e.g, Berger et al. supra. In addition, pRS-β-Gal, coding for constitutive expression of E. colβ-galactosidase (β-Gal), was included as an internal control for evaluation of transfection efficiency and compound toxicity.
(§2) Three to four replicates were used for each sample.
(§3) After 40 hours, the cells were washed with PBS, lysed with a Triton X-100-based buffer and assayed for LUC and β-Gal activities using a luminometer or spectrophotometer, respectively. For each replicate, the normalized response (NR) was calculated as: LUC response/β-Gal rate where β-Gal rate = β-Gal•1x10^-5/β-Gal incubation time.

PR = target: T2, PR (Homo sapiens, UniProt P06401); assay: Co-transfection assay, PR agonist mode; format: cell-based; set-up: expressed in transfected cells; host or cells: CV-1 cells
T2 sequence (P06401 1-933): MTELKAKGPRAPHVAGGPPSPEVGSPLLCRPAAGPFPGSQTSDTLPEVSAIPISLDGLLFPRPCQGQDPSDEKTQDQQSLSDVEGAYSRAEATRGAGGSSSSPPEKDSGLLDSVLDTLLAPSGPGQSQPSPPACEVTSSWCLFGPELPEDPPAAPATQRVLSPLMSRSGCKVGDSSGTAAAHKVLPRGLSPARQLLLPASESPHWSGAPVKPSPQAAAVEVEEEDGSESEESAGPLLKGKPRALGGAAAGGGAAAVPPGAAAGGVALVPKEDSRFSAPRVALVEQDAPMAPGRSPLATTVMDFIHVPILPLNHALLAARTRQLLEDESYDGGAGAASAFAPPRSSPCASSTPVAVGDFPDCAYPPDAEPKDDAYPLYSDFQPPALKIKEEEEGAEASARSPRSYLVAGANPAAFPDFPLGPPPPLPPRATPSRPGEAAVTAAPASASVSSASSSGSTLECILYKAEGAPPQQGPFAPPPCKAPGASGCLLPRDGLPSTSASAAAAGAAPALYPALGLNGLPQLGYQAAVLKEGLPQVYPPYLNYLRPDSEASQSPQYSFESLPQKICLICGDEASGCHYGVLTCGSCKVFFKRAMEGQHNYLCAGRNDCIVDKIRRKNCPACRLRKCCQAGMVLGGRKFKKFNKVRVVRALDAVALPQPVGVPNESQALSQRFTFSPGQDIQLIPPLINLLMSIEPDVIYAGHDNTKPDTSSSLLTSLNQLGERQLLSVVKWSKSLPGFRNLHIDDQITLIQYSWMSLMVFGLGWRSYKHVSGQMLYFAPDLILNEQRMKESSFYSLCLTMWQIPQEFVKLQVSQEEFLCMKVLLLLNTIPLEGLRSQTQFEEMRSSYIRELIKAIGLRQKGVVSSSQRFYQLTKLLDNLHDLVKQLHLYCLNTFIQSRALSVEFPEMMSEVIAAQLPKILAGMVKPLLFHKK
Procedure: as §1, §2, §3

human AR [2] = target: T1, human AR; assay: cell-based; format: binding

Which results are given for `Cn1c(=O)c(F)c(C(F)(F)F)c2cc3c(cc21)N1CCCC1(C)CC3` (racemic) [Compound 104, (R/S)-3-Fluoro-6,7,7a,11-tetrahydro-1,7a-dimethyl-4-trifluoromethyl-2-pyridono[5.6-g]pyrrolidino[1,2-a]quinoline]?
EC50 (human AR [1]): > 10000 nM; AR Antagonist CV-1 Cells Efficacy (%) (human AR [1]; na = not active): 86%; AR Agonist CV-1 Cells Efficacy (%) (human AR [1]; na = not active): na (not active (i.e. efficacy of <20 and potency of >10,000)); EC50 (human AR [1]; read-out: AR Potency Agon, Table 2, na = not active): > 10000 nM; EC50 (PR): > 10000 nM; Ki (human AR [2]): 159 nM

How did the EC50 (human AR [1]) turn out when `CC1(C)CCc2cc3c(C(F)F)c(F)c(=O)[nH]c3cc2N1` [Compound 106, 6-Difluoromethyl-7-fluoro-1,2,3,4-tetrahydro-2,2-dimethyl-8-pyridono[5,6-g]quinoline] was run?
Its EC50 is greater than 10000 nM.

And the IC50 (human AR [1])?
Its IC50 is 60 nM.

And the “AR Antagonist CV-1 Cells Efficacy (%)” value (human AR [1]; na = not active)?
The value was 83%.

And the “AR Agonist CV-1 Cells Efficacy (%)” value (human AR [1]; na = not active)?
Its value is “na (not active (i.e. efficacy of <20 and potency of >10,000))”.

What does the source list for `Cn1c(=O)c(F)c(C(F)(F)F)c2cc3c(cc21)NC(C)(C)CC3` [Compound 107, 7-Fluoro-1,2,3,4-tetrahydro-2,2,9-trimethyl-6-trifluoromethyl-8-pyridono[5,6-g]quinoline]?
EC50 (human AR [1]): > 10000 nM; IC50 (human AR [1]): 47 nM; AR Antagonist CV-1 Cells Efficacy (%) (human AR [1]; na = not active): 79%; AR Agonist CV-1 Cells Efficacy (%) (human AR [1]; na = not active): na (not active (i.e. efficacy of <20 and potency of >10,000))

Which EC50 (human AR [1]) does the source give for `CN1c2cc3c(cc2CCC1(C)C)c(C(F)(F)F)c(F)c(=O)n3C` [Compound 109, 7-Fluoro-1,2,3,4-tetrahydro-1,2,2,9-tetramethyl-6-trifluoromethyl-8-pyridono[5,6-g]quinoline] here?
The EC50 was greater than 10000 nM.

What about the IC50 (human AR [1]) of the same compound?
The IC50 was 12 nM.

What about the “AR Antagonist CV-1 Cells Efficacy (%)” value (human AR [1]; na = not active) of the same compound?
Its value is 86%.

And the “AR agonist/antagonist profile (in words)” value (human AR [1])?
Its value is “highly selective AR antagonists”.

What about the “AR Agonist CV-1 Cells Efficacy (%)” value (human AR [1]; na = not active) of the same compound?
Its value is “na (not active (i.e. efficacy of <20 and potency of >10,000))”.

For `CC1=CC(C)(C)Nc2cc3[nH]c(=O)c(F)c(C(F)(F)F)c3cc21` [Compound 111, 7-Fluoro-1,2-dihydro-2,2,4-trimethyl-6-trifluoromethyl-8-pyridono[5,6-g]quinoline], which “AR Antagonist CV-1 Cells Efficacy (%)” value (human AR [1]; na = not active) is on record?
Its value is 50%.

And the “AR agonist/antagonist profile (in words)” value (human AR [1])?
Its value is “mixed AR agonists/antagonists”.

What about the “AR Agonist CV-1 Cells Efficacy (%)” value (human AR [1]; na = not active) of the same compound?
The value was 20%.

And the Ki (human AR [2])?
The Ki was 804 nM.

How did the “AR Antagonist CV-1 Cells Efficacy (%)” value (human AR [1]; na = not active) turn out when `CC1CC(C)(C)Nc2cc3[nH]c(=O)c(F)c(C(F)(F)F)c3cc21` (centres unmarked) [Compound 112, 7-Fluoro-1,2,3,4-tetrahydro-2,2,4-trimethyl-6-trifluoromethyl-8-pyridono[5,6-g]quinoline] was run?
Its value is 49%.

What about the “AR agonist/antagonist profile (in words)” value (human AR [1]) of the same compound?
The value was “highly selective AR antagonists”.

Which “AR Antagonist CV-1 Cells Efficacy (%)” value (human AR [1]; na = not active) does the source give for `CC1CC(C)(C)n2oc(=O)c3c4[nH]c(=O)cc(C(F)(F)F)c4cc1c32` (centres unmarked) [Compound 113, 1,10-[1,3-dihydro-3-oxo-(2,1-isoxazolyl)]-1,2,3,4-tetrahydro-2,2,4,10-tetramethyl-6-trifluoromethyl-8-pyridono[5,6-g]quinoline] here?
Its value is 48%.

And the “AR agonist/antagonist profile (in words)” value (human AR [1])?
Its value is “mixed AR agonists/antagonists”.

And the “AR Agonist CV-1 Cells Efficacy (%)” value (human AR [1]; na = not active)?
Its value is 26%.

What about the Ki (human AR [2]) of the same compound?
The Ki was 17 nM.

With `CC1=CC(C)(C)Nc2c1cc1c(C(F)(F)F)c(F)c(=O)[nH]c1c2C` [Compound 114, 7-Fluoro-1,2-dihydro-2,2,4,10-tetramethyl-6-trifluoromethyl-8-pyridono[5,6-g]quinoline] as the compound, how does the EC50 (human AR [1]) read?
Its EC50 is greater than 10000 nM.

And the “AR Antagonist CV-1 Cells Efficacy (%)” value (human AR [1]; na = not active)?
Its value is 90%.

And the “AR Agonist CV-1 Cells Efficacy (%)” value (human AR [1]; na = not active)?
Its value is “na (not active (i.e. efficacy of <20 and potency of >10,000))”.

`Cc1c2c(cc3c(C(F)(F)F)c(F)c(=O)[nH]c13)C(C)CC(C)(C)N2` (centres unmarked) [Compound 115, 7-Fluoro-1,2,3,4-tetrahydro-2,2,4,10-tetramethyl-6-trifluoromethyl-8-pyridono[5,6-g]quinoline] was tested. Which EC50 (human AR [1]) did it give?
Its EC50 is greater than 10000 nM.

And the IC50 (human AR [1])?
The IC50 was 101 nM.

And the “AR Antagonist CV-1 Cells Efficacy (%)” value (human AR [1]; na = not active)?
The value was 88%.

And the “AR Agonist CV-1 Cells Efficacy (%)” value (human AR [1]; na = not active)?
The value was “na (not active (i.e. efficacy of <20 and potency of >10,000))”.

What does the source list for `Cc1c2c(cc3c(C(F)(F)F)c(F)c(=O)n(C)c13)C(C)CC(C)(C)N2` (centres unmarked) [Compound 116, 7-Fluoro-1,2,3,4-tetrahydro-2,2,4,9,10-pentamethyl-6-trifluoromethyl-8-pyridono[5,6-g]quinoline]?
EC50 (human AR [1]): > 10000 nM; AR Antagonist CV-1 Cells Efficacy (%) (human AR [1]; na = not active): 20%; AR Agonist CV-1 Cells Efficacy (%) (human AR [1]; na = not active): na (not active (i.e. efficacy of <20 and potency of >10,000))

Which results are given for `Cc1c2c(cc3c(C(F)(F)F)c(F)c(=O)[nH]c13)C(C)CC(C)(C)N2C` (centres unmarked) [Compound 117, 7-Fluoro-1,2,3,4-tetrahydro-1,2,2,4,10-pentamethyl-6-trifuluoromethyl-8-pyridono[5,6-g]quinoline]?
AR Antagonist CV-1 Cells Efficacy (%) (human AR [1]; na = not active): 81%; AR Agonist CV-1 Cells Efficacy (%) (human AR [1]; na = not active): na (not active (i.e. efficacy of <20 and potency of >10,000)); EC50 (human AR [1]; read-out: AR Agonist CV-1 Cells Potency, agonist potency EC50, na = not active): > 10000 nM

Which IC50 (human AR [1]) does the source give for `CCC1(CC)CCc2cc3c(C(F)(F)F)c(F)c(=O)[nH]c3cc2N1` [Compound 120, 2,2-Diethyl-7-fluoro-1,2,3,4-tetrahydro-6-trifluoromethyl-8-pyridono[5,6-g]quinoline] here?
Its IC50 is 25 nM.

What about the “AR Antagonist CV-1 Cells Efficacy (%)” value (human AR [1]; na = not active) of the same compound?
The value was 61%.
